“Also recorded” adds a separate entry of the source. Structures can show the parent of a compound that is named as a salt.
Tests used:
PSA mRNA = test: Endogenous PSA mRNA in LNCaP cells by QRT-PCR; type: cell-based, human; conditions: 185-9-2 5 μg/ml, R1881 1 nM 16 hours, normalized to GAPDH mRNA
Experimental: Induction of PSA mRNA by both R1881 (ligand-dependent) and FSK (ligand-independent) in LNCaP cells is dependent upon AR (Sadar, M. D., J. Biol. Chem. 274, 7777-7783 (1999); Wang G, Jones S J, Marra M A, Sadar M D, Oncogene 2006; 25:7311-23.). To test whether the compounds have an effect on endogenous gene expression, the levels of PSA mRNA in LNCaP cells exposed to R1881 were measured. LNCaP cells (in serum-free and phenol-red free media) were incubated with compounds for 1 hour before the addition of R1881 (1 nM) for an additional 16 hours before harvesting and isolating total RNA. Levels of mRNA were measured using QPCR. Levels of PSA mRNA were normalized to levels of GAPDH mRNA.

PC3 cells = test: Proliferation of PC3 cells (BrdU incorporation); type: cell-based, human; conditions: 185-9-2 5 μg/ml, 3 days
Text: LNCaP cells were employed initially for all experiments because they are well-differentiated human prostate cancer cells in which ligand-independent activation of the AR by FSK has been characterized (Nazareth et al 1996 J. Biol. Chem. 271, 19900-19907; and Sadar 1999 J. Biol. Chem. 274, 7777-7783). LNCaP cells express endogenous AR and secrete prostate-specific antigen (PSA) (Horoszewicz et al 1983 Cancer Res. 43, 1809-1818). LNCaP cells can be grown either as monolayers in cell culture or as tumors in the well-characterized xenograft model that progresses to androgen independence in castrated hosts (Sato et al 1996 J. Steroid Biochem. Mol. Biol. 58, 139-146; Gleave et al 1991 Cancer Res. 51, 3753-3761; Sato et al 1997 Cancer Res. 57, 1584-1589; and Sadar et al 2002 Mol. Cancer. Ther. 1(8), 629-637). […] Small molecules that specifically target the AR-NTD should have no effect on PC3 cells. […] Reporter specificity may be determined using several alternative reporter gene constructs. […]
The prostate gland is an androgen-dependent organ where androgens are the predominant mitogenic stimulus (Isaacs J T, Scott W W, Coffey D S., Prog Clin Biol Res. 1979; 33:133-44). […] BrdU incorporation was measured 4 days later to indicate changes in proliferation in response to androgen (FIG. 12). […]

VEGF = VEGF staining of harvested LNCaP xenografts; type: in vivo, mice; conditions: harvested at day 25 from castrated hosts
Text: Angiogenesis in prostate cancer is predominantly dependent upon vascular endothelial growth factor (VEGF). Testosterone is a potent inducer of VEGF in the prostate (Häggström et al 1999 J Urol. 161, 1620-1625) and re-expression of VEGF in androgen independent tumours is consistent with the re-expression of androgen-regulated genes (Gregory et al 1998 Cancer Res. 58, 5718-5724). Expression of VEGF is associated with androgen independence (Mitsiades et al 2001 Expert Opin Investig Drugs. 10, 1099-1115) and aggressive metastatic disease (Harper et al 1998 J Pathol. 186, 169-177; Balbay et al 1999 Clin Cancer Res. 5, 783-789; Melnyk et al 1999 J Urol. 161, 960-963).

[1] = General toxicity in xenograft-bearing mice (behavior, body weight, organ histology)
Experimental: For routine histology, major organs and xenografts were harvested upon completion of the experiment and were fixed in 10% neutral buffered formalin and then embedded in paraffin. Fixed sections were cut and stained with H&E. To determine possible effects of compounds on the proliferation rates and apoptosis in xenografts, Ki-67 immunostaining and the TUNEL assay was performed. […] Levels of AR were determined by immunohistochemistry or Western blot analysis.
LNCaP human prostate cancer cells express endogenous androgen receptor (AR) and prostate-specific antigen (PSA), and progress to androgen independence in castrated hosts. LNCaP cells (10^6/ml) were implanted subcutaneously into NOD-SCID male mice that were at least 8 weeks in age. The cells were suspended in 75 μl of RPMI medium 1640 (5% FBS) with 75 μl of Matrigel and injected into the flank region of the host under anesthesia. […] A total of five doses were given to the animal. Tumor volume and body weight were measured every 5 days.
IHC data was prepared by a commercial lab that was blinded to treatments.
PC3 cells were implanted subcutaneously into NOD-SCID male mice. […] Animals were treated every 5 days with a subcutaneous dose of 20 mg/kg body weight of PNG01-185-017-9-2 or matching volume of vehicle (control, DMSO). Tumor volume and body weight were measured every 5 days.

Which “endogenous PSA mRNA induction by R1881” value (PSA mRNA) does the source give for `CC(C)(c1ccc(OCC(O)CO)cc1)c1ccc(OCC(O)CCl)cc1` (centres unmarked) [185-9-2, BADGE.HCL.H2O] here?
The value was “to almost baseline levels; also recorded: inhibited endogenous PSA gene expression”.

What about the “proliferation of PC3 cells (BrdU incorporation)” value (PC3 cells) of the same compound?
The value was “does NOT block proliferation; also recorded: not to block proliferation”.

And the “VEGF protein in LNCaP xenografts” value (VEGF)?
The value was “decreased levels of vascular endothelial growth factor (VEGF) protein”.

What about the “VEGF protein in LNCaP xenografts” value (VEGF; listed as PNG01-185-017-9-2) of the same compound?
The value was “inhibited the expression of VEGF”.

What about the “body weight, LNCaP xenograft mice, intravenous” value ([1]; I.V. 50 mg/kg every other day) of the same compound?
Its value is “did not reduce body weight”.

And the “body weight, LNCaP xenograft mice, intratumoral” value ([1]; day 0 versus day 25)?
Its value is “did not reduce body weight”.

And the “pathology review of lung, heart, liver, spleen, and kidney” value ([1]; i.v. 50 mg/kg every other day, 5 injections, H&E)?
Its value is “showed no signs of toxicity”.

And the “general toxicity indicated by animal behavior or body weight” value ([1]; mouse, in vivo, iv)?
The value was “not to cause general toxicity”.

Source: US8686050B2, “Diglycidic ether derivative therapeutics and methods for their use” (British Columbia Cancer Agency Branch, priority 2008, dated 2014)
